Test results reported in US20260110682A1, “COMPOSITIONS AND METHODS TARGETING SWIP-10 AND MBLAC1 FOR THE THERAPEUTIC MODULATION OF COPPER DYSHOMEOSTASIS” (Florida Atlantic University Board of Trustees, priority 2022, published 2026).

Experiments:
chca-1 = test: qPCR of chca-1 RNA levels in worms; type: in vivo, C. elegans; conditions: N2 worms treated with BCS; similar extent as in swip-10 animals
DA neurons = test: DA neuron degeneration in worms with GFP-labeled DA neurons (BY250), scored by fluorescence/confocal imaging; type: in vivo, C. elegans; conditions: for rescue of DA neuron degeneration of swip-10: BY250
Description: FIG. 6A: WT transgenic worms with GFP-labeled DA neurons (BY250) were raised on agar plates containing vehicle or 10 μM of the Cu+ specific chelator BCS and imaged by fluorescence microscopy at the late L4 stage to quantify DA neuron degeneration. Data derived from 4 experiments for each condition with statistical evaluation by a one-tailed Student's t-test. […] CuCl2 is known to generate Cu+ upon uptake into cells, thus elevating intracellular Cu+ levels. […] Sustained alterations in mitochondrial function and increased oxidative stress are expected to place neurons at risk for death due to their high metabolic rate. […] Assays were performed blind to genotype and treatment, and degeneration assessed by scoring the frequency of dendritic breaks, shrunken soma and missing neurons as described by Gibson et al, 2018. Extending work examining degeneration in BY250: swip-10 vs BY250, a potential Cu-sensitive regulation of swip-10 degeneration was assessed using growth of BY250 animals on the Cu+ specific chelator, BCS, to promote degeneration, and incubation of BY250: swip-10 on CuCl2 and elesclomol to prevent swip-10 degeneration.

[1] = test system: mitochondrial respiration; conditions: swip-10 KO worms treated with FCCP
Description: Data here are presented as mean oxygen consumption (pmol/second) of 100 worms. ** represents statistical significance (P<0.01) compared to the N2 strain by a two-tailed (unpaired) t-test.

MBLAC1 = target: T1, MBLAC1 (Homo sapiens, UniProt A4D2B0); conditions: cited from earlier work
T1 sequence (A4D2B0 1-266): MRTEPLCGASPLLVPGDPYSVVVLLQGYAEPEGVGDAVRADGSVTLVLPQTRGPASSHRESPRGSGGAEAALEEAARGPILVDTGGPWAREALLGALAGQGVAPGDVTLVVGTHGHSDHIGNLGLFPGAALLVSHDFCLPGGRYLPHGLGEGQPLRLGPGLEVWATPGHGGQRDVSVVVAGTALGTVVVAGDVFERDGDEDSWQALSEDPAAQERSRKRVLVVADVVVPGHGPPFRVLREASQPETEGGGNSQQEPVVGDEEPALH

[2] = test system: animal models of AD and other neurodegenerative disorders; conditions: stroke, oxygen glucose deprivation induced neurodegeneration, motor neuron degeneration; cited from earlier work
[3] = test system: GLT1 type glutamate transporter; conditions: rodents treated with ceftriaxone; cited from earlier work
Menkes disease = conditions: boosting Cu levels; cited from earlier work

## Cc1cc(-c2ccc(S(=O)(=O)O)cc2)c2ccc3c(-c4ccc(S(=O)(=O)O)cc4)cc(C)nc3c2n1 [BCS, bathocuproinedisulfonic acid]
chca-1
  chca-1 RNA levels: elevated
DA neurons; WT (BY250) worms raised on agar plates containing 10 μM BCS, imaged at late L4 stage
  DA neuron degeneration: DA neuron degeneration generated

## [Cl][Cu][Cl] [CuCl2]
DA neurons; swip-10 animals incubated with CuCl2 (10 μM)
  rescue of DA neuron degeneration of swip-10: rescued

## N#CC(C#N)=NNc1ccc(OC(F)(F)F)cc1 [FCCP]
[1]
  oxygen consumption: restores oxygen consumption

## CO/N=C(\C(=O)N[C@@H]1C(=O)N2C(C(=O)O)=C(CSc3nc(=O)c(=O)[nH]n3C)CS[C@H]12)c1csc(N)n1 [ceftriaxone]
MBLAC1
  binding to MBLAC1: binds MBLAC1
[2]
  neuroprotection: demonstrates neuroprotection
[3]
  GLT1 type glutamate transporter level: triggers an elevation

## CN(NC(=O)CC(=O)NN(C)C(=S)c1ccccc1)C(=S)c1ccccc1 [elesclomol]
Menkes disease
  pathology associated with Menkes disease: reduce pathology
DA neurons; swip-10 animals incubated with elesclomol (5 μM)
  rescue of DA neuron degeneration of swip-10: rescued
